From patent US9024018B2, “3-substituted-8-substituted-3H-imidazo[5,1-d][1,2,3,5]tetrazin-4-one compounds and their use” (Pharminox Limited, priority 2009, dated 2015) come the findings set out here.

Common to all, as to assay type: cell-based
One assay deals with U373V. The experiment in a line: MTT assay for 7-day toxicity, U373V glioma cells (vector control, MGMT-). The conditions noted are these: Glioma cell, 168 h, 7 day MTT assay, glioma line U373V. A digest of the protocol:
(§1)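 Cells in RPMI 1640 with 10% FBS and 400 μg/mL G418 were seeded at 650 cells/well, attached overnight, then exposed 7 days at 37 °C to compound at final 0.5–1000 μM (≥4 wells each). Viability read by MTT against a time-zero plate.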
A general note: Formazan colour is commonly taken as a measure of viable cells.

The test system of another assay is SNB19V. Nature of the assay: MTT assay for 7-day toxicity, SNB19V glioma cells (vector control, MGMT-). The following applies: Glioma cell, 168 h, 7 day MTT assay, glioma line SNB19V. A digest of the protocol: as §1
In a further assay the test system is SNB19M. Nature of the assay: MTT assay for 7-day toxicity, SNB19M glioma cells (stably transfected with MGMT, MGMT+). The conditions noted are these: Glioma cell, 168 h, 7 day MTT assay, glioma line SNB19M. A digest of the protocol:
as §1

Another assay has as its system U373M. The experiment in a line: MTT assay for 7-day toxicity, U373M glioma cells (stably transfected with MGMT, MGMT+). The conditions noted are these: Glioma cell, 168 h, 7 day MTT assay, glioma line U373M. A digest of the protocol:
as §1

The structures appear in SMILES notation.

For the compound `Cn1nnc2c(-c3nc4ccccc4s3)ncn2c1=O` [WW-058, 8-(Benzo[d]thiazol-2-yl)-3-methylimidazo[5,1-d][1,2,3,5]tetrazin-4(3H)-one], the GI50 (commonly the concentration that inhibits growth by half) with U373V is less than 75 µM; with SNB19V, less than 45 µM; in the assay with SNB19M, less than 70 µM; in the assay on U373M it was less than 60 µM.
For `Cn1nnc2c(-c3nc4ccccc4[nH]3)ncn2c1=O` [WW-062, 8-(1H-Benzo[d]imidazol-2-yl)-3-methylimidazo[5,1-d][1,2,3,5]tetrazin-4(3H)-one], the GI50 is less than 75 µM in the assay with U373V, less than 45 µM with SNB19V, less than 70 µM with SNB19M and less than 60 µM in the assay on U373M.
With `C#CCn1nnc2c(-c3nc4ccccc4[nH]3)ncn2c1=O` [WW-063, 8-(1H-Benzo[d]imidazol-2-yl)-3-(prop-2-ynyl)imidazo[5,1-d][1,2,3,5]tetrazin-4(3H)-one], the GI50 in the assay on U373V is less than 75 µM; with SNB19V, less than 45 µM; in the assay with SNB19M it was less than 70 µM; with U373M, less than 60 µM.
